# In patent US10307357B2, “Prebiotic oral care compositions containing an alkyl glycoside” (COLGATE-PALMOLIVE COMPANY, priority 2013, dated 2019):
# Experiments:
# Experiment in all cases: Twenty-four hour biofilm growth (crystal violet)
# Assay type in all cases: cell-based
# Details in all cases: 24 hours, control = 1
# [1] = test system: Actinomyces naeslundii
# Protocol: (§1) The increase in biofilm formation of the tested bacteria in response to selected glycosides (β-methyl-D-galactoside and α-methyl-D-galactoside) was investigated by setting up biofilm growth assays in a nutritionally rich medium (brain heart infusion broth (BHI), Oxoid), over 24 hours. Late exponential growth phase liquid cultures were prepared by transferring the respective bacterium from blood agar plates to BHI and overnight incubation at 37° C. in an anaerobic atmosphere for A. viscosus, V. parvula, P. gingivalis, P. intermedia, T. forsythia, A. naeslundii, and C. sputigena, and in a 5% CO2 environment for S. salivarius, S. sanguinis, S. mitis, A. actinomycetemcomitans, S. mutans, and S. gordonii. Overnight cultures were transferred to BHI and adjusted to a concentration of 1×10^7 CFU/ml by measuring the optical density at 600 nm (OD600) (BioRad SmartSpec 3000). For each strain, 200 μl of the bacterial suspension was added to a 96-well plate containing 20 μl of the respective glycosides. Final concentrations of the glycosides were set to 5, 10, 20 and 25 μmol/ml. […] Additionally, for each bacterium tested, a background control, to correct for background staining, was added. This background control contained the bacterium tested and 0.03 weight % chlorhexidine, as an antiseptic. Plates were incubated as previously described. After 24 hrs the supernatant was removed from the wells of the plates. The wells were washed twice with 1×100 μL PBS (phosphate buffered saline), fixed for 20 minutes with 96% vol. ethanol (96% vol. solution in water) and the biofilm retained at the bottom of the wells was stained with 1 weight % crystal violet (1 weight % solution in water). The bound dye was dissolved with 5% vol. acetic acid (5% vol. solution in water). Quantification of the stained biofilm was performed by measuring the absorbance at 630 nm using a Multiskan Ascent microplate reader (Thermo Scientific). […] The experiment was carried out on three different days (thus providing 3 biological replicas) and each day the experiment was carried out in quadruple (thus providing 4 technical replicas) for each combination of bacterium with glycoside and for each control. For each day and for each combination, the average (mean) of the values obtained (as detailed above) for the four technical replicas was calculated to provide a single value for each combination on each day. The values shown in Tables 7 to 8, below, are the average (mean) of the three single values obtained for each combination of bacterium with glycoside.
# [2] = test system: Actinomyces viscosus
# Protocol: as §1
# [3] = test system: Aggregatibacter actinomycetemcomitans
# Protocol: as §1
# [4] = test system: Capnocytophaga sputigena
# Protocol: as §1
# [5] = test system: Porphyromonas gingivalis
# Protocol: as §1
# [6] = test system: Prevotella intermedia
# Protocol: as §1
# [7] = test system: Streptococcus gordonii
# Protocol: as §1
# [8] = test system: Streptococcus mitis
# Protocol: as §1
# [9] = test system: Streptococcus mutans
# Protocol: as §1
# [10] = test system: Streptococcus salivarius
# Protocol: as §1
# [11] = test system: Streptococcus sanguinis
# Protocol: as §1
# [12] = test system: Tannerella forsythia
# Protocol: as §1
# [13] = test system: Veillonella parvula
# Protocol: as §1
smiles,measurement,setting,value
CO[C@H]1O[C@H](CO)[C@H](O)[C@H](O)[C@H]1O [α-methyl-D-galactoside],biofilm OD 630 nm divided by control (biofilm growth),[1]; 5 μmol/ml,0.9655
same,biofilm OD 630 nm divided by control (biofilm growth),[1]; 10 μmol/ml,0.9764
same,biofilm OD 630 nm divided by control (biofilm growth),[1]; 20 μmol/ml,0.9692
same,biofilm OD 630 nm divided by control (biofilm growth),[1]; 25 μmol/ml,0.9789
same,biofilm OD 630 nm divided by control (biofilm growth),[2]; 5 μmol/ml,0.7268
same,biofilm OD 630 nm divided by control (biofilm growth),[2]; 10 μmol/ml,0.7293
same,biofilm OD 630 nm divided by control (biofilm growth),[2]; 20 μmol/ml,0.7490
same,biofilm OD 630 nm divided by control (biofilm growth),[2]; 25 μmol/ml,0.6777
same,biofilm OD 630 nm divided by control (biofilm growth),[3]; 5 μmol/ml,0.9911
same,biofilm OD 630 nm divided by control (biofilm growth),[3]; 10 μmol/ml,0.9943
same,biofilm OD 630 nm divided by control (biofilm growth),[3]; 20 μmol/ml,1.1846
same,biofilm OD 630 nm divided by control (biofilm growth),[3]; 25 μmol/ml,1.1720
same,biofilm OD 630 nm divided by control (biofilm growth),[4]; 5 μmol/ml,0.9689
same,biofilm OD 630 nm divided by control (biofilm growth),[4]; 10 μmol/ml,1.0025
same,biofilm OD 630 nm divided by control (biofilm growth),[4]; 20 μmol/ml,1.1142
same,biofilm OD 630 nm divided by control (biofilm growth),[4]; 25 μmol/ml,0.9669
same,biofilm OD 630 nm divided by control (biofilm growth),[5]; 5 μmol/ml,0.9047
same,biofilm OD 630 nm divided by control (biofilm growth),[5]; 10 μmol/ml,0.9772
same,biofilm OD 630 nm divided by control (biofilm growth),[5]; 20 μmol/ml,0.9820
same,biofilm OD 630 nm divided by control (biofilm growth),[5]; 25 μmol/ml,1.0029
same,biofilm OD 630 nm divided by control (biofilm growth),[6]; 5 μmol/ml,1.1518
same,biofilm OD 630 nm divided by control (biofilm growth),[6]; 10 μmol/ml,1.1589
same,biofilm OD 630 nm divided by control (biofilm growth),[6]; 20 μmol/ml,1.0758
same,biofilm OD 630 nm divided by control (biofilm growth),[6]; 25 μmol/ml,0.9774
same,biofilm OD 630 nm divided by control (biofilm growth),[7]; 5 μmol/ml,0.6940
same,biofilm OD 630 nm divided by control (biofilm growth),[7]; 10 μmol/ml,0.6458
same,biofilm OD 630 nm divided by control (biofilm growth),[7]; 20 μmol/ml,0.6465
same,biofilm OD 630 nm divided by control (biofilm growth),[7]; 25 μmol/ml,0.6859
same,biofilm OD 630 nm divided by control (biofilm growth),[8]; 5 μmol/ml,1.4898
same,biofilm OD 630 nm divided by control (biofilm growth),[8]; 10 μmol/ml,1.2441
same,biofilm OD 630 nm divided by control (biofilm growth),[8]; 20 μmol/ml,1.3917
same,biofilm OD 630 nm divided by control (biofilm growth),[8]; 25 μmol/ml,1.2800
same,biofilm OD 630 nm divided by control (biofilm growth),[9]; 5 μmol/ml,1.2046
same,biofilm OD 630 nm divided by control (biofilm growth),[9]; 10 μmol/ml,1.3284
same,biofilm OD 630 nm divided by control (biofilm growth),[9]; 20 μmol/ml,1.5452
same,biofilm OD 630 nm divided by control (biofilm growth),[9]; 25 μmol/ml,1.7240
same,biofilm OD 630 nm divided by control (biofilm growth),[10]; 5 μmol/ml,0.9165
same,biofilm OD 630 nm divided by control (biofilm growth),[10]; 10 μmol/ml,0.9115
same,biofilm OD 630 nm divided by control (biofilm growth),[10]; 20 μmol/ml,1.1202
same,biofilm OD 630 nm divided by control (biofilm growth),[10]; 25 μmol/ml,0.9258
same,biofilm OD 630 nm divided by control (biofilm growth),[11]; 5 μmol/ml,2.6029
same,biofilm OD 630 nm divided by control (biofilm growth),[11]; 10 μmol/ml,2.4812
same,biofilm OD 630 nm divided by control (biofilm growth),[11]; 20 μmol/ml,2.1593
same,biofilm OD 630 nm divided by control (biofilm growth),[11]; 25 μmol/ml,2.4656
same,biofilm OD 630 nm divided by control (biofilm growth),[12]; 5 μmol/ml,0.7627
same,biofilm OD 630 nm divided by control (biofilm growth),[12]; 10 μmol/ml,1.0506
same,biofilm OD 630 nm divided by control (biofilm growth),[12]; 20 μmol/ml,0.8302
same,biofilm OD 630 nm divided by control (biofilm growth),[12]; 25 μmol/ml,1.0929
same,biofilm OD 630 nm divided by control (biofilm growth),[13]; 5 μmol/ml,1.0323
same,biofilm OD 630 nm divided by control (biofilm growth),[13]; 10 μmol/ml,1.0615
same,biofilm OD 630 nm divided by control (biofilm growth),[13]; 20 μmol/ml,1.0577
same,biofilm OD 630 nm divided by control (biofilm growth),[13]; 25 μmol/ml,1.1040
CO[C@@H]1O[C@H](CO)[C@H](O)[C@H](O)[C@H]1O [β-methyl-D-galactoside],biofilm OD 630 nm divided by control (biofilm growth),[1]; 5 μmol/ml,0.9907
same,biofilm OD 630 nm divided by control (biofilm growth),[1]; 10 μmol/ml,0.9316
same,biofilm OD 630 nm divided by control (biofilm growth),[1]; 20 μmol/ml,0.9697
same,biofilm OD 630 nm divided by control (biofilm growth),[1]; 25 μmol/ml,0.9727
same,biofilm OD 630 nm divided by control (biofilm growth),[2]; 5 μmol/ml,0.5917
same,biofilm OD 630 nm divided by control (biofilm growth),[2]; 10 μmol/ml,0.5767
same,biofilm OD 630 nm divided by control (biofilm growth),[2]; 20 μmol/ml,0.6104
same,biofilm OD 630 nm divided by control (biofilm growth),[2]; 25 μmol/ml,0.6322
same,biofilm OD 630 nm divided by control (biofilm growth),[3]; 5 μmol/ml,1.1108
same,biofilm OD 630 nm divided by control (biofilm growth),[3]; 10 μmol/ml,1.0188
same,biofilm OD 630 nm divided by control (biofilm growth),[3]; 20 μmol/ml,1.0927
same,biofilm OD 630 nm divided by control (biofilm growth),[3]; 25 μmol/ml,1.0212
same,biofilm OD 630 nm divided by control (biofilm growth),[4]; 5 μmol/ml,0.7253
same,biofilm OD 630 nm divided by control (biofilm growth),[4]; 10 μmol/ml,0.8100
same,biofilm OD 630 nm divided by control (biofilm growth),[4]; 20 μmol/ml,0.8487
same,biofilm OD 630 nm divided by control (biofilm growth),[4]; 25 μmol/ml,0.9428
same,biofilm OD 630 nm divided by control (biofilm growth),[5]; 5 μmol/ml,0.9407
same,biofilm OD 630 nm divided by control (biofilm growth),[5]; 10 μmol/ml,0.9326
same,biofilm OD 630 nm divided by control (biofilm growth),[5]; 20 μmol/ml,0.9049
same,biofilm OD 630 nm divided by control (biofilm growth),[5]; 25 μmol/ml,0.9163
same,biofilm OD 630 nm divided by control (biofilm growth),[6]; 5 μmol/ml,1.1201
same,biofilm OD 630 nm divided by control (biofilm growth),[6]; 10 μmol/ml,1.0925
same,biofilm OD 630 nm divided by control (biofilm growth),[6]; 20 μmol/ml,1.1229
same,biofilm OD 630 nm divided by control (biofilm growth),[6]; 25 μmol/ml,1.1007
same,biofilm OD 630 nm divided by control (biofilm growth),[7]; 5 μmol/ml,0.7601
same,biofilm OD 630 nm divided by control (biofilm growth),[7]; 10 μmol/ml,0.6695
same,biofilm OD 630 nm divided by control (biofilm growth),[7]; 20 μmol/ml,0.6763
same,biofilm OD 630 nm divided by control (biofilm growth),[7]; 25 μmol/ml,0.6429
same,biofilm OD 630 nm divided by control (biofilm growth),[8]; 5 μmol/ml,1.3127
same,biofilm OD 630 nm divided by control (biofilm growth),[8]; 10 μmol/ml,1.1242
same,biofilm OD 630 nm divided by control (biofilm growth),[8]; 20 μmol/ml,1.1524
same,biofilm OD 630 nm divided by control (biofilm growth),[8]; 25 μmol/ml,1.1692
same,biofilm OD 630 nm divided by control (biofilm growth),[9]; 5 μmol/ml,1.3512
same,biofilm OD 630 nm divided by control (biofilm growth),[9]; 10 μmol/ml,1.0007
same,biofilm OD 630 nm divided by control (biofilm growth),[9]; 20 μmol/ml,1.1097
same,biofilm OD 630 nm divided by control (biofilm growth),[9]; 25 μmol/ml,1.2791
same,biofilm OD 630 nm divided by control (biofilm growth),[10]; 5 μmol/ml,3.1530
same,biofilm OD 630 nm divided by control (biofilm growth),[10]; 10 μmol/ml,5.6484
same,biofilm OD 630 nm divided by control (biofilm growth),[10]; 20 μmol/ml,18.9267
same,biofilm OD 630 nm divided by control (biofilm growth),[10]; 25 μmol/ml,20.1333
same,biofilm OD 630 nm divided by control (biofilm growth),[11]; 5 μmol/ml,1.8586
same,biofilm OD 630 nm divided by control (biofilm growth),[11]; 10 μmol/ml,2.3853
same,biofilm OD 630 nm divided by control (biofilm growth),[11]; 20 μmol/ml,2.3700
same,biofilm OD 630 nm divided by control (biofilm growth),[11]; 25 μmol/ml,2.4211
same,biofilm OD 630 nm divided by control (biofilm growth),[12]; 5 μmol/ml,0.7494
same,biofilm OD 630 nm divided by control (biofilm growth),[12]; 10 μmol/ml,0.6979
same,biofilm OD 630 nm divided by control (biofilm growth),[12]; 20 μmol/ml,0.9049
same,biofilm OD 630 nm divided by control (biofilm growth),[12]; 25 μmol/ml,0.8051
same,biofilm OD 630 nm divided by control (biofilm growth),[13]; 5 μmol/ml,1.0106
same,biofilm OD 630 nm divided by control (biofilm growth),[13]; 10 μmol/ml,1.0266
same,biofilm OD 630 nm divided by control (biofilm growth),[13]; 20 μmol/ml,1.0191
same,biofilm OD 630 nm divided by control (biofilm growth),[13]; 25 μmol/ml,1.0384
